We go through one molecule from US20190022225A1, “PROTOCOL FOR INCREASING LIFE EXPECTANCY IN A TEST SUBJECT” (Mayo Foundation for Medical Education and Research, priority 2015, published 2019).

Holding throughout (assay type): in vivo, mouse
Experiment [1] deals with INKattac mice. Kind of experiment: Micro CT of femoral cortical bone in INKattac mice treated from 12-28 months. How it is done:
(§1) This example describes a method for assessing the effect of senotlytic agents or killing of senescent cells on bone structure. Two groups of INKattac mice are used for this method: mice treated from 12-28 months of age with vehicle (“old” controls) and mice treated from 12-28 months of age with AP20187. All mice used in this example were male. After sacrifice the cadavers were fixed in 10% neutral buffered formalin, and stored at 4° C.
Mice were cleaned of excess tissue, and placed in a Bruker 1176 “Skyscanner” for micro computerized tomographic (mCT) scanning. A variety of settings were explored to visualize whole skeletons, the following settings were used in this example: 65 Kv, 385 μA, 17.58 μm, 0.5 mm Al filter, rotation step 0.5, frame averaging 6, smoothing 2, smoothing kernel 2, ring artifact correction 4, and beam hardening correction 30%. Typical acquisition consisted of a whole body scan, followed by additional scans if necessary for further data exploration.
Reconstruction of the raw data was carried out. Subvoluming of anatomical features of interest was then further performed on the whole skeleton, using DataViewer, or CtAn software (Bruker). […]
The average thickness of each 2 mm subvolume was measured in treated versus non-treated animals. […]

Experiment [2] has as its system INKattac mice. Briefly: Micro CT estimate of intervertebral disc space (IVS) in aged mice. How it is done: as §1
Intervertebral discs are type of cartilage filling the space between vertebras of the spine. They are known to decrease in function and volume with age. We estimated the intervertebral volumes between specific vertebra in spines of aged mice, with and without senolytic treatment, to determine if intervertebral disc space was maintained in aged animals through senolysis.
While IVDs cannot be directly visualized with the micro-CT method of example 43, an image segmentation protocol was developed to infer disc volume by determining the volume between lumbar vertebra L6 and L5, L5 and L4, and L4 and L3 to estimate the intervertebral disc space (IVS) (FIG. 94).

The subject of experiment [3] is 3MR or INK-ATTAC mice exposed to cigarette smoke. Kind of experiment: Cigarette smoke exposure model (COPD), oxygen saturation. The conditions noted are these: after 2 months of cigarette smoke exposure. How it is done:
Six week-old 3MR (n=35) or INK-ATTAC (n=35) mice were chronically exposed to cigarette smoke generated from a Teague TE-10 system, an automatically-controlled cigarette smoking machine that produces a combination of side-stream and mainstream cigarette smoke in a chamber, which is transported to a collecting and mixing chamber where varying amounts of air is mixed with the smoke mixture. […] Mice received a total of 6 hours of cigarette smoke exposure per day, 5 days a week for 6 months. Each lighted cigarette (3R4F research cigarettes containing 10.9 mg of total particulate matter (TPM), 9.4 mg of tar, and 0.726 mg of nicotine, and 11.9 mg carbon monoxide per cigarette [University of Kentucky, Lexington, Ky.]) was puffed for 2 seconds and once every minute for a total of 8 puffs, with the flow rate of 1.05 L/min, to provide a standard puff of 35 cm^3. The smoke machine was adjusted to produce a mixture of side stream smoke (89%) and mainstream smoke (11%) by smoldering 2 cigarettes at one time. The smoke chamber atmosphere was monitored for total suspended particulates (80-120 mg/m^3) and carbon monoxide (350 ppm). Beginning at day 7, (10) INK-ATTAC and (10) 3MR mice were treated with AP20187 (3×per week) or gancyclovir (5 consecutive days of treatment followed by 16 days off drug, repeated until the end of the experiment), respectively. An equal number of mice received the corresponding vehicle. The remaining 30 mice (15 INK-ATTAC and 15 3MR) were evenly split with 5 of each genetically modified strain placed into three different treatment groups. One group (n=10) received Nutlin-3A (25 mg/kg dissolved in 10% DMSO/3% Tween-20 in PBS, treated 14 days consecutively followed by 14 days off drug, repeated until the end of the experiment). One group (n=10) received ABT-263 (Navitoclax) (100 mg/kg dissolved in 15% DMSO/5% Tween-20, treated 7 days consecutively followed by 14 days off drug, repeated until the end of the experiment), and the last group (n=10) received only the vehicle used for ABT-263 (15% DMSO/5% Tween-20), following the same treatment regimen as ABT-263.
After two months of cigarette smoke exposure, lung function was assessed by monitoring oxygen saturation using the MouseSTAT PhysioSuite pulse oximeter (Kent Scientific). Animals were anesthetized with isoflurane (1.5%) and the toe clip was applied. Mice were monitored for 30 seconds and the average peripheral capillary oxygen saturation (SpO2) measurement over this duration was calculated.

For experiment [4], the system named is INK-ATTAC transgenic mice. Kind of experiment: Cardiac stress test (lethal isoproterenol) in INK-ATTAC mice treated with AP20187. How it is done: To study the impact of senescent cell clearance on health and lifespan, cohorts of INK-ATTAC transgenic mice on FVB×129Sv/E×C57BL/6 mixed or C57BL/6 pure genetic backgrounds were established. At 12 months age, one half of each cohort was injected three times/week with AP20187 to induce apoptosis of p16-positive senescent cells (0.2 mg/kg and 2 mg/kg AP20187 for the mixed and the pure C57BL/6 cohorts, respectively), while the other half of each cohort received vehicle. At 18 months, subsets of male and female mice from each cohort were subjected to a cardiac stress test, in which mice were injected with a lethal dose of isoproterenol (680 mg/kg) and the time to cardiac arrest was recorded.
Cardio-protective signaling pathways are known to provide tolerance to metabolic stresses such as ischemia and hypoxia decline (Granfeldt et al., 2009, Cardiovasc. Res. 83:234-246). […] ATP-dependent K channels (KATP) play a central role in cardio-protective signaling (Gross and Auchampach, 1992, Cardiovasc. Res. 26:1011-1016).). These KATP channels are composed of the pore-forming subunit Kir6.2/Kir6.1, the regulatory subunit Sur2a, and additional accessory proteins. […]

A further experiment concerns aging mice. Kind of experiment: Late life muscle strength and condition (grip strength, treadmill, muscle weight, fiber area). As for the experimental part: Grip strength was measured in untreated 12 month old mice, and in mice treated with either vehicle or AP20187 at 18 and 28 months of age.
Muscle strength was also assessed by determining exercise duration and distance on a treadmill.
As an additional measure of muscle condition gastrocnemius and tibialis anterior muscles, shown in FIG. 99, where dissected from senolysis treated and untreated 28 month old mice and weighed. As shown in FIGS. 100 and 101 the gastrocnemius and tibialis anterior muscles are heavier in treated mice than in untreated mice, muscle weights from untreated 18 month old mice are included to show the age related decline. Muscle fiber area of the gastrocnemius and tibialis anterior muscles was also used to assess muscle condition.

Entries after “also recorded” stand apart in the source; their conditions may differ.

With `CC[C@H](C(=O)N1CCCC[C@H]1C(=O)O[C@H](CCc1ccc(OC)c(OC)c1)c1cccc(OCC(=O)NCC(CNC(=O)COc2cccc([C@@H](CCc3ccc(OC)c(OC)c3)OC(=O)[C@@H]3CCCCN3C(=O)[C@@H](CC)c3cc(OC)c(OC)c(OC)c3)c2)CN(C)C)c1)c1cc(OC)c(OC)c(OC)c1` [AP20187], the “cortical thickness of femoral bone” value in the experiment with INKattac mice [1] (aged mice, versus controls) is reported as “increased”. In addition, the “retention of cortical bone volume (BV/TV) with age” value in the experiment with INKattac mice [1] (male mice treated from 12-28 months, 2 mm subvolume of femur mid-diaphysis) came out at 6.1%. Also, in the experiment with INKattac mice [2] (L6-L5, L5-L4, L4-L3, versus vehicle), the “improvement of intervertebral disc space (IVS)” value was 25-33%. Further, the “IVS versus vehicle treated controls, significance” value with INKattac mice [2] (three sites in the spine) is given as “statistically significantly greater”. Also, the “SpO2 levels versus untreated controls” value in experiment [3] is “statistically significant increases”. Also, the “time to cardiac arrest after lethal isoproterenol (cardio-protection)” value in experiment [4] (0.2 or 2 mg/kg three times/week from 12 to 18 months) is given as “sustained youthful cardio-protection against isoproterenol”. In addition, in experiment [4] (18-month-old female mice), the “Sur2a expression in heart” value is listed as “sustained Sur2a expression”. In the experiment with aging mice (28 month old mice), the “gastrocnemius and tibialis anterior muscle weight” value is reported as “decreased muscle loss with age”. Further, in the experiment with aging mice (28 months, versus vehicle), the “exercise distance on treadmill” value was “increased exercise distance; also recorded: greater distances”, the “exercise duration on treadmill” value is recorded as “increased duration of exercise; also recorded: exercised for longer” and the grip strength entry is listed as “increased grip strength; also recorded: decreased loss of muscle strength”.
